The record followed here is patent publication US12662489B2 (Sitryx Therapeutics Limited, priority 2023, dated 2026).

The term IC50 denotes the concentration that inhibits the measured activity by half.

The target in experiment [1] is T1, MTHFD1 recombinant human enzyme (Homo sapiens, UniProt P11586).
T1 sequence (P11586 2-291 limits assumed): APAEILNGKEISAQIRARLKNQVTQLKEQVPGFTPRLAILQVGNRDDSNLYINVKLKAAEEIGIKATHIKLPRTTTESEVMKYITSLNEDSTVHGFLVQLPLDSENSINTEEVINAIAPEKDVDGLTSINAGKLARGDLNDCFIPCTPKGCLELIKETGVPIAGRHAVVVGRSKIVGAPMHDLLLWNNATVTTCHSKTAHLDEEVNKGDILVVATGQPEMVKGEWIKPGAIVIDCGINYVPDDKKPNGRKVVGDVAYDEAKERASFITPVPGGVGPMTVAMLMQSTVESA
The experiment in a line: MTHFD1 inhibition assay (NAD(P)H-Glo luminescence). The settings on record: MTHFD1 IC50, recombinant human enzyme 200 nM, NADP, band.

The target in experiment [2] is T2, MTHFD2 recombinant human enzyme (Homo sapiens, UniProt P13995).
T2 sequence (P13995 36-350): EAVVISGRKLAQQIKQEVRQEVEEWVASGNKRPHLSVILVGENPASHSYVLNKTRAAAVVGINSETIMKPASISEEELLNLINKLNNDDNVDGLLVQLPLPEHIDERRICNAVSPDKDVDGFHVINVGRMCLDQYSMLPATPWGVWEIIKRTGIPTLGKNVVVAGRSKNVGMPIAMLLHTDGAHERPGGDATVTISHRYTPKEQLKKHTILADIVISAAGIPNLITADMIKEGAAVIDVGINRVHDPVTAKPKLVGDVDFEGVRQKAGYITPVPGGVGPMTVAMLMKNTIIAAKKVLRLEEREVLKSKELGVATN
Kind of experiment: MTHFD2 inhibition assay (NAD(P)H-Glo luminescence). The note with it: for MTHFD1/MTHFD2 IC50 ratio: selectivity of MTHFD2 inhibition over MTHFD1, band.

As for `COC[C@H]1CN(c2cc(C)c3c4c(c(=O)oc3c2C)CN(C(=O)c2ccc(C(=O)NS(=O)(=O)C3(C)CC3)c(N3CC5CC5C3)c2F)CC4)CCN1C` (stereo partly drawn) [Example 71, 2-(3-azabicyclo[3.1.0]hexan-3-yl)-3-fluoro-4-(8-((R)-3-(methoxymethyl)-4-methylpiperazin-1-yl)-7,10-dimethyl-5-oxo-1,3,4,5-tetrahydro-2H-chromeno[3,4-c]pyridine-3-carbonyl)-N-((1-methylcyclopropyl)sulfonyl)benzamide], the IC50 was in the range of 10 to 100 nM in experiment [1] and 1 to 10 nM in experiment [2].

Take `COC[C@H]1CN(c2cc(C)c3c4c(c(=O)oc3c2C)CN(C(=O)c2ccc(C(=O)NS(=O)(=O)N(C)C)c(N3CC5CC5C3)c2F)CC4)CCN1C` (stereo partly drawn) [Example 72, 2-(3-azabicyclo[3.1.0]hexan-3-yl)-N-(N,N-dimethylsulfamoyl)-3-fluoro-4-(8-((R)-3-(methoxymethyl)-4-methylpiperazin-1-yl)-7,10-dimethyl-5-oxo-1,3,4,5-tetrahydro-2H-chromeno[3,4-c]pyridine-3-carbonyl)benzamide]: the IC50 in experiment [1] and in experiment [2] was 1 to 10 nM each time.

As to `COC[C@H]1CN(c2cc(C)c3c4c(c(=O)oc3c2C)CN(C(=O)c2ccc(C(=O)NS(=O)(=O)C3(C)CC3)c(N3C5CCC3CC5)c2F)CC4)CCN1C` [Example 73, (R)-2-(7-azabicyclo[2.2.1]heptan-7-yl)-3-fluoro-4-(8-(3-(methoxymethyl)-4-methylpiperazin-1-yl)-7,10-dimethyl-5-oxo-1,3,4,5-tetrahydro-2H-chromeno[3,4-c]pyridine-3-carbonyl)-N-((1-methylcyclopropyl)sulfonyl)benzamide], the IC50 in experiment [1] and in experiment [2] was 1 to 10 nM each time.

For `COC[C@H]1CN(c2cc(C)c3c4c(c(=O)oc3c2C)CN(C(=O)c2ccc(C(=O)NS(=O)(=O)N(C)C)c(N3C5CCC3CC5)c2F)CC4)CCN1C` [Example 74, (R)-2-(7-azabicyclo[2.2.1]heptan-7-yl)-N-(N,N-dimethylsulfamoyl)-3-fluoro-4-(8-(3-(methoxymethyl)-4-methylpiperazin-1-yl)-7,10-dimethyl-5-oxo-1,3,4,5-tetrahydro-2H-chromeno[3,4-c]pyridine-3-carbonyl)benzamide], the IC50 in experiment [1] and in experiment [2] was 1 to 10 nM in each case. In experiment [2], the “MTHFD1/MTHFD2 IC50 ratio” value was “F (<3)”.

For the compound `COC[C@H]1CN(c2cc(C)c3c4c(c(=O)oc3c2C)CN(C(=O)c2ccc(C(=O)NS(=O)(=O)C3(C)CC3)c(N3CCCC(F)(F)C3)c2)CC4)CCN1C` [Example 75, (R)-2-(3,3-difluoropiperidin-1-yl)-4-(8-(3-(methoxymethyl)-4-methylpiperazin-1-yl)-7,10-dimethyl-5-oxo-1,3,4,5-tetrahydro-2H-chromeno[3,4-c]pyridine-3-carbonyl)-N-((1-methylcyclopropyl)sulfonyl)benzamide], the IC50 in experiment [1] lay in the range of 1 to 10 nM. In experiment [2], the IC50 lay within 1 to 10 nM and the “MTHFD1/MTHFD2 IC50 ratio” value was “G (^ 3 to 9.0)”.

In the case of `COC[C@H]1CN(c2cc(C)c3c4c(c(=O)oc3c2C)CN(C(=O)c2ccc(C(=O)NS(=O)(=O)C3(C)CC3)c(N3CCCC(F)(F)C3)c2F)CC4)CCN1C` [Example 76, (R)-2-(3,3-difluoropiperidin-1-yl)-3-fluoro-4-(8-(3-(methoxymethyl)-4-methylpiperazin-1-yl)-7,10-dimethyl-5-oxo-1,3,4,5-tetrahydro-2H-chromeno[3,4-c]pyridine-3-carbonyl)-N-((1-methylcyclopropyl)sulfonyl)benzamide], the IC50 in experiment [1] fell in the range of 10 to 100 nM; in experiment [2], 1 to 10 nM.

For `COC[C@H]1CN(c2cc(C)c3c4c(c(=O)oc3c2C)CN(C(=O)c2ccc(C(=O)NS(=O)(=O)N(C)C)c(N3CCCC(F)(F)C3)c2)CC4)CCN1C` [Example 77, (R)-2-(3,3-difluoropiperidin-1-yl)-N-(N,N-dimethylsulfamoyl)-4-(8-(3-(methoxymethyl)-4-methylpiperazin-1-yl)-7,10-dimethyl-5-oxo-1,3,4,5-tetrahydro-2H-chromeno[3,4-c]pyridine-3-carbonyl)benzamide], in experiment [1], the concentration for half-maximal inhibition (IC50) is 1 to 10 nM. Also, in experiment [2], the IC50 fell in the range of 1 to 10 nM and the “MTHFD1/MTHFD2 IC50 ratio” value was “F (<3)”.

Consider `COC[C@H]1CN(c2cc(C)c3c4c(c(=O)oc3c2C)CN(C(=O)c2ccc(C(=O)NS(=O)(=O)N(C)C)c(N3CCCC(F)(F)C3)c2F)CC4)CCN1C` [Example 78, (R)-2-(3,3-difluoropiperidin-1-yl)-N-(N,N-dimethylsulfamoyl)-3-fluoro-4-(8-(3-(methoxymethyl)-4-methylpiperazin-1-yl)-7,10-dimethyl-5-oxo-1,3,4,5-tetrahydro-2H-chromeno[3,4-c]pyridine-3-carbonyl)benzamide], for which the IC50 in experiment [1] and in experiment [2] was 1 to 10 nM in each case.

As to `COC[C@H]1CN(c2cc(C)c3c4c(c(=O)oc3c2C)CN(C(=O)c2ccc(C(=O)NS(=O)(=O)C3(C)CC3)c(N(C)C)c2)CC4)CCN1C` [Example 79, (R)-2-(dimethylamino)-4-(8-(3-(methoxymethyl)-4-methylpiperazin-1-yl)-7,10-dimethyl-5-oxo-1,3,4,5-tetrahydro-2H-chromeno[3,4-c]pyridine-3-carbonyl)-N-((1-methylcyclopropyl)sulfonyl)benzamide], the IC50 in experiment [1] lay within 10 to 100 nM. In addition, in experiment [2], the IC50 was in the range of 1 to 10 nM and the “MTHFD1/MTHFD2 IC50 ratio” value is “H (>9.0 to 30)”.

`COC[C@H]1CN(c2ccc3c4c(c(=O)oc3c2C)CN(C(=O)c2cc(Cl)c(C(=O)NS(=O)(=O)N(C)C)c(N3C5CCC3CC5)c2)CC4)CCN1C` [Example 80, (R)-2-(7-azabicyclo[2.2.1]heptan-7-yl)-6-chloro-N-(N,N-dimethylsulfamoyl)-4-(8-(3-(methoxymethyl)-4-methylpiperazin-1-yl)-7-methyl-5-oxo-1,3,4,5-tetrahydro-2H-chromeno[3,4-c]pyridine-3-carbonyl)benzamide]: in experiment [1], the IC50 lay within 10 to 100 nM. Moreover, in experiment [2], the IC50 was in the range of 10 to 100 nM and the “MTHFD1/MTHFD2 IC50 ratio” value is recorded as “G (^ 3 to 9.0)”.

For the compound `COC[C@H]1CN(c2cc(C)c3c4c(c(=O)oc3c2C)CN(C(=O)c2ccc(C(=O)NS(=O)(=O)C3(C)CC3)c(N3CCC(F)(F)C3)c2)CC4)CCN1C` [Example 81, (R)-2-(3,3-difluoropyrrolidin-1-yl)-4-(8-(3-(methoxymethyl)-4-methylpiperazin-1-yl)-7,10-dimethyl-5-oxo-1,3,4,5-tetrahydro-2H-chromeno[3,4-c]pyridine-3-carbonyl)-N-((1-methylcyclopropyl)sulfonyl)benzamide], the IC50 in experiment [1] was 10 to 100 nM; in experiment [2], 1 to 10 nM.

For the compound `COC[C@H]1CN(c2cc(C)c3c4c(c(=O)oc3c2C)CN(C(=O)c2ccc(C(=O)NS(=O)(=O)N(C)C)c(N3CCC(F)(F)C3)c2)CC4)CCN1C` [Example 82, (R)-2-(3,3-difluoropyrrolidin-1-yl)-N-(N,N-dimethylsulfamoyl)-4-(8-(3-(methoxymethyl)-4-methylpiperazin-1-yl)-7,10-dimethyl-5-oxo-1,3,4,5-tetrahydro-2H-chromeno[3,4-c]pyridine-3-carbonyl)benzamide], the IC50 in experiment [1] is 10 to 100 nM; in experiment [2], 1 to 10 nM.
